According to patent publication US20220008401A1, “COMPOSITIONS AND METHODS FOR TREATING PULMONARY DISEASE WITH MATRIX METALLOPROTEINASE INHIBITORS” (DARSHA LLC, priority 2019, published 2022):

System: LPS injured mice
Experiment: Pulmonary wet to dry ratio (edema), LPS-injured mice, single inhaled dose
Format: in vivo, C57BL/6J mice
Settings: LPS 1.5 mg/kg; 24 hours later single aerosolized dose 35 mg/kg; right middle lobe; n=3/group (control 4.1, LPS 12.9)
Description: We next determined if inhaled Compound 1 attenuated specific features of acute inflammatory lung injury that were also observed in response to LPS. Again, 12-week-old male C57BL/6J mice were intranasally instilled with LPS (1.5 mg/kg of 1 mg/ml solution in sterile PBS). 24 hours later, these mice received a single dose of aerosolized MMP inhibitor (Compound 1, dissolved in PBS, 35 mg/kg) or PBS alone and a tail vein injection of FITC labeled albumin (FITC-albumin). One hour following nebulization, the mice were sacrificed. The left lung was fixed in formalin from each animal, paraffin embedded, sectioned and stained with H&E to examine histological features indicative of lung injury. These were achieved by visually scoring each slide based on a lung injury scoring system developed by the American Thoracic Society for animal models of inflammatory lung injury.
Edema was also assessed by determination of pulmonary wet to dry ratios. At the time of sacrifice the right middle lobe was removed from each animal and promptly weighed to obtain the wet weight. Thereafter, the lung tissue was dried in an oven at 65° C. for 72 hours and then weighed to obtain the dry weight.

## butanamide, N-hydroxy-2-[[(4-hydroxyphenyl)sulfonyl](3-pyridinylmethyl)amino]-3-methyl, hydrochloride, (2R) [Compound 1]
  pulmonary wet:dry ratio: 7.3
